{"source": "paper PMC4636305", "about": "“Identification of Small-Molecule Inhibitors against Meso-2, 6-Diaminopimelate Dehydrogenase from Porphyromonas gingivalis” (PLoS ONE, 2015)", "key": {"[1]": {"target": "Meso-diaminopimelate dehydrogenase (m-Ddh) from P. gingivalis (Porphyromonas gingivalis, UniProt Q7MW40)", "sequence (Q7MW40 entry or part of it)": "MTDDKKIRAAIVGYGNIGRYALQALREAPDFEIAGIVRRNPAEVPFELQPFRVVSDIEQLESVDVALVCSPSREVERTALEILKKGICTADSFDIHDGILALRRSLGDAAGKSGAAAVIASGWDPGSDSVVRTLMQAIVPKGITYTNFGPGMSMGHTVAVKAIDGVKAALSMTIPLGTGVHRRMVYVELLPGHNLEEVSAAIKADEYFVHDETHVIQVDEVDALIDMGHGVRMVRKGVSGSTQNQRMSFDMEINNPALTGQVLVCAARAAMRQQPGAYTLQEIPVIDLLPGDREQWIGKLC", "experiment": "m-Ddh kinetic assay, inhibitor screening and IC50 determination", "assay_type": "biochemical", "conditions": "for IC50: 400 μM m-DAP, 180 μM NADP+, pH 10.5, 25°C, three independent experiments; for IC50 with addition of Triton-X 100 versus without: .01% Triton-X 100, test for aggregation-based inhibition; for inhibition at 3000 µM: read-out: % inhibition of enzymatic activity at 3 mM", "procedure": "(§1) The enzymatic activity for m-Ddh was determined by observing the standard oxidative deamination reaction of the substrate meso-diaminopimelate. The reaction contained 400 μM of meso-diaminopimelate (Sigma-Aldrich, St. Louis, MO), 180 μM NADP^+ (Sigma-Aldrich, St. Louis, MO), 200 mM glycine-KCl-KOH buffer (pH 10.5), and the enzyme in a final volume of 1 ml. The reaction was initiated with the addition of NADP^+. The reaction velocity was calculated from the increase in absorbance at 340 nm, spectrophotometrically monitored at 25°C, where one unit of enzyme was defined as the amount of enzyme catalyzing the formation of […] of NADPH per min.\nA range of concentrations (0–3 mM) of each small-molecule compound inhibitor were added to the standard reaction and the percent of m-Ddh enzymatic inhibition was measured by the kinetic assay described above. Percent inhibition was determined by the formula: (rateofreactionnoinhibitor)−(rateofreactioninhibitor)/rateofreactionnoinhibitor×100. The concentration of each compound inhibitor which caused 50% enzymatic inhibition (IC50) was calculated using PRISM v6.04 software (Graphpad, San Diego, CA) from three independent experiments."}, "P. gingivalis [2]": {"system": "P. gingivalis", "experiment": "MIC, broth microdilution", "assay_type": "cell-based, Porphyromonas gingivalis", "procedure": "Minimal Inhibitory Concentration (MIC) assays were performed using a broth microdilution method. P. gingivalis cells were grown overnight and the following day diluted 1/10 into fresh medium. Cells were allowed to grow to mid-log phase (OD600 ≈ 0.5). Compounds were serially diluted in 96-well microtiter plates (Jet Biofil, Genesee Scientific, San Diego, CA) and an aliquot of the cell suspension was added to each well with the compound inhibitor sample for a final cell count of 1×10^5 CFU/ml. Plates were incubated for five days at 37°C in anaerobic conditions."}, "P. gingivalis [3]": {"system": "P. gingivalis", "experiment": "MBC, plating of MIC wells without visible growth", "assay_type": "cell-based, Porphyromonas gingivalis", "conditions": "for MBC: Porphyromonas gingivalis, 168 h, plated 7 days, anaerobic, n = 3", "procedure": "Samples were plated on tryptic soy agar plates supplemented with 5% sheep blood (Becton, Dickinson, Franklin Lakes, NJ) and incubated at 37°C in anaerobic conditions for 7 days."}, "S. sanguinis": {"system": "S. sanguinis", "experiment": "MIC, broth microdilution", "assay_type": "cell-based, Streptococcus sanguinis", "conditions": "for MIC: Streptococcus sanguinis, S. sanguinis, lacks the target m-Ddh, n = 3; for S. sanguinis MIC relative to MIC of P. gingivalis: selectivity"}, "P. gingivalis [4]": {"system": "P. gingivalis", "experiment": "Time-kill assay", "assay_type": "cell-based, Porphyromonas gingivalis", "conditions": "for reduction of viable P. gingivalis cell count: 5× MIC", "procedure": "P. gingivalis cells were grown overnight and the following day diluted 1/10 into fresh medium. Cells were allowed to grow to mid-log phase (OD600 ≈ 0.5) then diluted to a final cell suspension of 1×10^5 CFU/ml. Compounds were added at a concentration of 5x the MIC determined from the 96-well broth microdilution assay. Samples were taken at different time intervals (0, 0.25, 0.5, 1, 2, 3, 4, 6 and 24 hours) and plated on tryptic soy agar plates supplemented with 5% sheep blood (Becton, Dickinson, Franklin Lakes, NJ) using an automated Eddy Jet spiral plater (Neutec Group, Farmingdale, NY). Plates were incubated at 37°C in anaerobic conditions for 7 days."}, "P. gingivalis cells": {"system": "P. gingivalis cells", "experiment": "SEM analysis of compound exposed cells", "assay_type": "cell-based, Porphyromonas gingivalis", "conditions": "treated P. gingivalis cells; Compounds 4 and 5 at 5x MIC", "procedure": "Untreated or treated P. gingivalis cells were deposited onto a 0.1 μm disposable Millipore filter to remove medium, and samples were fixed using 2% glutaraldehyde in 0.1 M sodium cacodylate buffer (pH 7.4) for 30 min, followed by 1% osmium tetroxide in 0.1 M sodium cacodylate buffer (pH 7.4). Samples embedded in the filters were then dehydrated in ethanol followed by hexamethyldisilazane (HMDS) and allowed to air-dry. The filters were sectioned and mounted onto stubs and coated with gold for three minutes (EMS– 550 Automated Sputter Coater, Electron Microscopy Sciences, Hatfield, PA). Micrographs were taken at 30,000× total magnification using a Zeiss EVO 50 XVP scanning electron microscope (Carl Zeiss, Peabody, MA)."}, "m-Ddh [5]": {"system": "m-Ddh", "experiment": "Determination of kinetic parameters of m-Ddh", "assay_type": "biochemical, Porphyromonas gingivalis", "conditions": "pH 10.5, 25°C, other substrate held at 0.5 mM; for Km: read-out: apparent Km", "procedure": "as §1\nInitial velocity measurements for m-DAP and NADP^+ were determined at 25°C in a similar reaction for the standard oxidative deamination reaction assay. The reaction contained 200 mM glycine-KCl-KOH buffer (pH 10.5) with m-DAP as the variable substrate with concentrations between 0.001 mM and 1 mM and NADP^+ held constant at a saturating concentration of 0.5 mM or NADP^+ as the variable substrate with concentrations between 0.01 mM to 1 mM and m-DAP held constant at 0.5 mM. Km and Vmax values were determined through non-linear fitting. All assays were performed in triplicates and non-linear fitting Michaelis-Menten data were calculated from Graphpad Prism version 5.04 (Graphpad, San Diego, CA)."}, "m-Ddh [6]": {"system": "m-Ddh", "parameters": "method as in PMID 21616177", "conditions": "C. thermocellum m-Ddh; cited from earlier work"}, "[7]": {"conditions": "compound at 3 mM, initial screen"}, "[8]": {"conditions": "Porphyromonas gingivalis, 120 h, five days, 37°C, anaerobic, n = 3"}}, "note": "“Also recorded” adds a separate entry of the source. Where two headings read alike, the source gives them in different places. Residues, ends and D or L forms follow the SMILES beside them.", "data": [{"molecule": "COc1ccc(S(=O)(=O)Nc2nc3ccccc3nc2Nc2cccc(C(=O)O)c2)cc1", "note": "[Compound 4]", "values": [{"measurement": "IC50", "setting": "[1]", "result": "157 ± 26", "unit": "µM"}, {"measurement": "IC50 with addition of Triton-X 100 versus without", "setting": "[1]", "result": "no difference in activity"}, {"measurement": "inhibition at 3000 µM", "setting": "[1]; [7]", "result": "≥ 90", "unit": "%"}, {"measurement": "MIC", "setting": "P. gingivalis [2]; [8]", "result": 250, "unit": "µM"}, {"measurement": "MBC to MIC ratio", "setting": "P. gingivalis [3]", "result": "less than 4"}, {"measurement": "MBC", "setting": "P. gingivalis [3]", "result": 374, "unit": "µM"}, {"measurement": "MIC", "setting": "S. sanguinis", "result": 1740, "unit": "µM"}, {"measurement": "S. sanguinis MIC relative to MIC of P. gingivalis", "setting": "S. sanguinis", "result": 7, "unit": "×"}, {"measurement": "P. gingivalis cell count", "setting": "P. gingivalis [4]; 5x MIC, after six hours of treatment", "result": "maintained a low cell count"}, {"measurement": "reduction of viable P. gingivalis cell count", "setting": "P. gingivalis [4]; within 6 h of exposure", "result": 2, "unit": "log10 CFU /ml"}, {"measurement": "cellular structure by SEM", "setting": "P. gingivalis cells", "result": "alteration of the cellular structure"}]}, {"molecule": "Cc1cc(S(=O)(=O)Nc2cc(SCCC(=O)O)c(O)c3ccccc23)ccc1F", "note": "[Compound 5]", "values": [{"measurement": "IC50", "setting": "[1]", "result": "310 ± 23", "unit": "µM"}, {"measurement": "IC50 with addition of Triton-X 100 versus without", "setting": "[1]", "result": "no difference in activity"}, {"measurement": "inhibition at 3000 µM", "setting": "[1]; [7]", "result": "≥ 90", "unit": "%"}, {"measurement": "MIC", "setting": "P. gingivalis [2]; [8]", "result": 167, "unit": "µM"}, {"measurement": "MIC", "setting": "P. gingivalis [2]; five days, 37°C, anaerobic, n = 3", "result": 167, "unit": "µM"}, {"measurement": "MBC to MIC ratio", "setting": "P. gingivalis [3]", "result": "less than 4"}, {"measurement": "MBC", "setting": "P. gingivalis [3]", "result": 254, "unit": "µM"}, {"measurement": "MIC", "setting": "S. sanguinis", "result": 305, "unit": "µM"}, {"measurement": "S. sanguinis MIC relative to MIC of P. gingivalis", "setting": "S. sanguinis", "result": "almost double"}, {"measurement": "P. gingivalis cell viability", "setting": "P. gingivalis [4]; 5x MIC, after two hours of exposure", "result": "no viable cell count; also recorded: complete elimination"}, {"measurement": "reduction of viable P. gingivalis cell count", "setting": "P. gingivalis [4]; after 2 h of exposure", "result": 5, "unit": "log10 CFU/ml"}, {"measurement": "cellular structure by SEM", "setting": "P. gingivalis cells", "result": "alteration of the cellular structure"}]}, {"molecule": "O=C(O)CCC(=O)Nc1ccc(S(=O)(=O)Nc2cnc3ccccc3n2)cc1", "note": "[Compound 6]", "values": [{"measurement": "IC50", "setting": "[1]", "result": "356 ± 16", "unit": "µM"}, {"measurement": "IC50 with addition of Triton-X 100 versus without", "setting": "[1]", "result": "no difference in activity"}, {"measurement": "inhibition at 3000 µM", "setting": "[1]; [7]", "result": "≥ 90", "unit": "%"}, {"measurement": "MIC", "setting": "P. gingivalis [2]; [8]", "result": 2820, "unit": "µM"}, {"measurement": "MIC", "setting": "P. gingivalis [2]; Porphyromonas gingivalis, bound stated", "result": "> 2000", "unit": "µM"}, {"measurement": "MIC", "setting": "S. sanguinis", "result": 3310, "unit": "µM"}]}, {"molecule": "CCC[C@@H]1CN(c2nc(C)ccc2C(=O)O)C[C@H]1C(=O)O", "note": "[Compound 7]", "values": [{"measurement": "IC50", "setting": "[1]", "result": "1160 ± 175", "unit": "µM"}, {"measurement": "inhibition at 3000 µM", "setting": "[1]; [7]", "result": "≥ 90", "unit": "%"}]}, {"molecule": "NCc1[nH]cc(CCC(=O)O)c1CC(=O)O", "note": "[Compound 8]", "values": [{"measurement": "% inhibition of enzymatic activity at 3 mM", "setting": "[1]; [7]", "result": "No inhibition at 3 mM"}]}, {"molecule": "O=C(O)c1sccc1S(=O)(=O)Nc1cccc2[nH]ncc12", "note": "[Compound 9]", "values": [{"measurement": "% inhibition of enzymatic activity at 3 mM", "setting": "[1]; [7]", "result": "No inhibition at 3 mM"}]}, {"molecule": "N[C@@H](CC(=O)O)C(=O)N[C@@H](Cc1ccccc1)C(=O)O", "note": "[Compound 10] (H-Asp-Phe-OH)", "values": [{"measurement": "inhibition at 3000 µM", "setting": "[1]", "result": 2, "unit": "%"}]}, {"molecule": "O=C(O)CCCC(O)(O)C(=O)O", "note": "[Compound 11]", "values": [{"measurement": "inhibition at 3000 µM", "setting": "[1]; [7]", "result": 13, "unit": "%"}]}, {"molecule": "O=C(O)c1cccc(S(=O)(=O)Nc2ccnc(Sc3ccccn3)c2)c1", "note": "[Compound 12]", "values": [{"measurement": "% inhibition of enzymatic activity at 3 mM", "setting": "[1]; [7]", "result": "No inhibition at 3 mM"}]}, {"molecule": "O=C(O)c1cccc(NS(=O)(=O)c2ccc(O)c(C(=O)O)c2)c1", "note": "[Compound 13]", "values": [{"measurement": "inhibition at 3000 µM", "setting": "[1]; [7]", "result": 6, "unit": "%"}]}, {"molecule": "Cc1n[nH]c(C)c1S(=O)(=O)Nc1cccc(NS(=O)(=O)c2ccccc2)c1", "note": "[Compound 14]", "values": [{"measurement": "inhibition at 3000 µM", "setting": "[1]; [7]", "result": 17, "unit": "%"}]}, {"molecule": "NC(=O)c1ccc[n+]([C@@H]2O[C@H](COP(=O)([O-])OP(=O)(O)OC[C@H]3O[C@@H](n4cnc5c(N)ncnc54)[C@H](OP(=O)(O)O)[C@@H]3O)[C@@H](O)[C@H]2O)c1", "note": "[NADP^+]", "values": [{"measurement": "Vmax", "setting": "m-Ddh [5]", "result": 91.95, "unit": "nmol/s"}, {"measurement": "Km", "setting": "m-Ddh [5]", "result": 60, "unit": "µM"}, {"measurement": "Km", "setting": "m-Ddh [6]", "result": 90, "unit": "µM"}]}, {"molecule": "CC1(C)S[C@@H]2[C@H](NC(=O)[C@H](N)c3ccccc3)C(=O)N2[C@H]1C(=O)O", "note": "[ampicillin, reference compound]", "values": [{"measurement": "cellular structure by SEM", "setting": "P. gingivalis cells", "result": "altered morphology"}]}, {"molecule": "N[C@H](CCC[C@H](N)C(=O)O)C(=O)O", "note": "[m-DAP, meso-diaminopimelate]", "values": [{"measurement": "Vmax", "setting": "m-Ddh [5]", "result": 130.1, "unit": "nmol/s"}, {"measurement": "Km", "setting": "m-Ddh [5]", "result": 370, "unit": "µM"}]}]}
